The text below walks through data of patent US10376487B2, “Method of treatment” (Vanda Pharmaceuticals, Inc., priority 2013, dated 2019).

The data set is described as follows: Clinical food-effect study: pharmacokinetics of a 100 mg tasimelteon capsule with or without a high-fat/high-calorie meal. The format is in vivo, human. Conditions: for Cmax / Tmax: human, in vivo, po. The protocol:
A clinical study was undertaken to investigate the effects of food on administration of tasimelteon. Specifically, the primary objective of the study was to investigate the influence of food (high-calorie/high-fat) on the pharmacokinetics of 100 mg of tasimelteon in healthy subjects. This was a single-center, open-label, crossover design which lasted up to 5 weeks. 26 Healthy male and female subjects (18-50 years old) were enrolled in the study. There was a 2-period, randomized, 2-sequence crossover design where each subject received 100 mg tasimelteon either with or without food. Subjects were randomly assigned to receive a 100 mg tasimelteon capsule under fasted conditions or a 100 mg tasimelteon capsule under fed conditions (i.e., 30 minutes after beginning to ingest a high-fat meal). There was a 7-day washout between treatment groups. FIG. 1 depicts an example of the overall study design. In FIG. 1, tasimelteon is referred to as VEC-162.
For purposes of the study depicted in FIG. 1, administration under fasted conditions was administration with 240 mL of water at approximately 6:00 AM, after at least a 10-hour fast. Subjects were not allowed to eat any food for at least 4 hours postdose. Subjects were allowed to drink water as desired except 1 hour before and 2 hours after drug administration.
Administration under fed conditions was administration with 240 mL of water at approximately 6:00 AM, after a high-fat/high=calorie breakfast, which included one cup of milk. Subjects began the recommended meal 30 minutes prior to drug administration. Subjects finished eating the meal in 30 minutes or less and the drug was administered approximately 30 minutes after the start of the meal. Subjects were not allowed to eat any food for at least 4 hours postdose. Subjects were allowed to drink water as desired except 1 hour before and 2 hours after drug administration.
25 Subjects completed both periods of the study.

Setting [1] is: fed vs fasted, 100 mg oral, 90% CI within 80% to 125%.
[2] abbreviates: with a high-fat/high calorie meal vs fasted.

Structures are written as SMILES. Like-named read-outs stand apart in the source and are kept apart here.

As to `CCC(=O)NC[C@@H]1C[C@H]1c1cccc2c1CCO2` [tasimelteon], where the note is “administered with a high-fat meal, illustrative prescribing information language”, the “Cmax lower than when given in a fasted state” value came out at 44%. This compound showed a Cmax (both sexes, 100 mg, healthy subjects, 100 mg oral capsule, fasted conditions) of 786 ng/mL. Under “both sexes, 100 mg, healthy subjects, 100 mg oral capsule, fed conditions (high-fat/high-calorie meal)”, this compound yielded a Cmax of 445 ng/mL. For the setting “both sexes, 100 mg, healthy subjects, 100 mg oral capsule, fed conditions (high-fat/high-calorie meal), read-out: median Tmax”, the Tmax is 2.5 h. Under setting [1], the “AUC(0-t) geometric mean ratio” value turned out to be 108.57% and the “AUC(Inf) geometric mean ratio” value is recorded as 106.54%. Moreover, the “Cmax geometric mean ratio” value (fed vs fasted, 100 mg oral, 90% confidence interval 49.72% to 62.67%) is reported as 55.82%. The Tmax (after fasted oral administration, illustrative prescribing information language, read-out: peak concentration (Tmax)) lay within 0.5 to 3 h. For the same compound, under setting [2], the extent of absorption result is reported as “no significant change” and the rate of absorption entry is on record as “significant decrease”.
